Experiments:
[1] = Drug loading and encapsulation efficiency of drug loaded PNPs comprising pGlu(0.6C10) (HPLC); type: physicochemical; settings: 2.5 mg drug
Text: To assess the ability of pGlu(0.6C10) to load positively charged antibiotics in the form of PNPs, we selected vancomycin, oritavancin, RV40 and RV94 as the drug payload. Vancomycin was chosen as a non-lipoglycopeptide control and the other three payloads were lipoglycopeptides. The polymers we used for loading and encapsulating the antibiotics were PLA(10K)-PEG(2K) (A) obtained from Nanosoft Polymers (Winston-Salem, NC, USA; SKU: 2693), pGlu (D) also obtained from Nanosoft Polymers (SKU: 10069), and pGlu(0.6C10) (E) (FIG. 4).
We prepared the drug loaded PNPs by using 10 mg of polymers and 2.5 mg of drug (FIG. 4). Specifically, polymers (10 mg) and drug (2.5 mg) were dissolved in 1.2 ml organic solvent mixture (DMSO: acetonitrile=0.5:0.7). The solution was injected into 10 ml deionized water stirred with a magnetic stirring bar. 1.1 ml 10×PBS solution was added to suspend nanoparticles in 1×PBS solution. The nanoparticles were washed using Amicon filter (100k cut-off) twice and resuspended in PBS. Drug loading in nanoparticle formulation was determined by HPLC with a WATERS™ T3 column. Acetonitrile/water was used as the mobile phase, and the wavelength of the UV detector was set at 281 nm.
EE is equal to mass of drug (mg) after wash/mass of drug input (i.e., 2.5 mg) *100%. With EE calculated as such, an EE of over 100% may be obtained on certain occasions due to standard error within the analytical measurement and represents complete encapsulation (i.e., 100% EE).

[2] = Pharmacokinetic study of oritavancin-loaded PNPs in rat osteomyelitis model (plasma and tibia, LC-MS/MS); type: in vivo; settings: osteomyelitis rats, 6 mg/kg intravenous
Text: A rat model of bacterial osteomyelitis of the tibia was generated via intraosseous injection of MRSA ATCC 43300 at a target challenge dose of 7 log10 CFU of the bacteria per rat. Briefly, rats were anaesthetized by isoflurane and the infection was initiated via injection of the bacteria through the upper condyle of the right tibia into the cancellous bone marrow of a rat. The inoculation was made on the anterior surface of the tibia. The area was located by running a ½ inch 27-gauge needle against the skin, along the anterior crest of the tibia. The needle slipped over the tip of the tuberosity, which was located between the medial and lateral condyles. A rough depression could be felt with the tip of the needle. The patella tendon (silver in color) connected at this point. Once identified, the needle was pushed into the metaphysis using slight pressure and rotating motion. The needle was removed and replaced with a new ½ inch 27 gauge needle, and 30 μL of bacteria was inoculated into the bone marrow cavity. The needle was removed and the animal was allowed to recover from anesthesia.
Three weeks (21 days) after the initiation of the bacterial infection, the osteomyelitis rats were divided into three treatment groups, with five rats in each group. […] The concentrations of oritavancin in the plasma and tibia samples were quantified using LC-MS/MS.

[3] = Drug loading and encapsulation efficiency of drug loaded PNPs comprising pGlu(0.6C10)-PEG (HPLC); type: physicochemical; settings: 5 mg drug
Text: To assess the ability of pGlu(0.6C10)-PEG to load positively charged antibiotics in the form of PNPs, we selected vancomycin and RV94 as the antibiotic drug payload in a first study (study 1) (Table 5), and additionally included oritavancin and RV40 as the antibiotic drug payload in a second study (study 2) (Table 6). The polymers we used for loading and encapsulating the antibiotics were PLA-PEG (A) (Nanosoft Polymers, SKU: 2693), pGlu-PEG (B) (Nanosoft Polymers, SKU: 2917), and pGlu(0.6C10)-PEG (C) (FIG. 10).
We prepared the drug loaded PNPs by using 20 mg of polymers and 5 mg of drug (FIG. 10). Specifically, polymers (20 mg) and drug (5 mg) were dissolve in 1 ml organic solvent mixture (DMSO: acetonitrile=1:1). The solution was injected into 20 ml deionized water stirred with a magnetic stirring bar. The nanoparticles were washed using Amicon filter (100k cut-off) twice and resuspended in deionized water. Drug loading in nanoparticle formulation was determined by HPLC with a WATERS™ T3 column. Acetonitrile/water was used as the mobile phase, and the wavelength of the UV detector was set at 281 nm.
Drug loading is equal to mass of drug (mg) after wash/(mass of drug (mg) after wash+mass of polymer input (i.e., 20 mg))*100%.
EE is equal to mass of drug (mg) after wash/mass of drug input (i.e., 5 mg)*100%.

[4] = PNP with PLA-PEG (A) 5 mg + pGlu (D) 5 mg
[5] = PNP with PLA-PEG (A) 5 mg + pGlu(0.6C10) (E) 5 mg
[6] = PNP with PLA-PEG (A) as only polymer, 10 mg polymer
[7] = drug payload only, no polymer (N/A)
[8] = study 2, PLA-PEG (A) 10 mg + pGlu(0.6C10)-PEG (C) 10 mg
[9] = study 2, PLA-PEG (A) 10 mg + pGlu-PEG (B) 10 mg
[10] = study 1, PLA-PEG (A) 10 mg + pGlu(0.6C10)-PEG (C) 10 mg
[11] = study 1, PLA-PEG (A) 10 mg + pGlu-PEG (B) 10 mg
[12] = study 1, PLA-PEG (A) 20 mg only

CN[C@H](CC(C)C)C(=O)N[C@H]1C(=O)N[C@@H](CC(N)=O)C(=O)N[C@H]2C(=O)N[C@H]3C(=O)N[C@H](C(=O)N[C@H](C(=O)O)c4cc(O)cc(O)c4-c4cc3ccc4O)[C@H](O[C@H]3C[C@](C)(N)[C@@H](O)[C@H](C)O3)c3ccc(c(Cl)c3)Oc3cc2cc(c3O[C@@H]2O[C@H](CO)[C@@H](O)[C@H](O)[C@H]2O[C@H]2C[C@](C)(NCc3ccc(-c4ccc(Cl)cc4)cc3)[C@@H](O)[C@H](C)O2)Oc2ccc(cc2Cl)[C@H]1O [Ori, oritavancin]
Drug loading [1, 4]: 8.7%
Encapsulation efficiency (EE) [1, 4]: 39.3%
Encapsulation efficiency (EE) ([1]; PNP with PLA-PEG (A) 5 mg + pGlu (D) 5 mg, listed as oritavancin): 39.3%
Drug loading [1, 5]: 12.3%
Encapsulation efficiency (EE) [1, 5]: 60.6%
Encapsulation efficiency (EE) ([1]; PNP with PLA-PEG (A) 5 mg + pGlu(0.6C10) (E) 5 mg, listed as oritavancin): 60.6%
Drug loading [1, 6]: 2.3%
Encapsulation efficiency (EE) [1, 6]: 9.8%
Encapsulation efficiency (EE) ([1]; PNP with PLA-PEG (A) as only polymer, 10 mg polymer, listed as oritavancin): 9.8%
Drug loading [1, 7]: 0.0%
Encapsulation efficiency (EE) [1, 7]: 0.0%
Accumulation of oritavancin in infected tibia compared to uninfected tibia ([2]; 24 h post-injection): preferential accumulation of oritavancin in the infected tibia
Plasma concentrations of oritavancin ([2]; up to 4 hours post-injection): comparable and lower plasma concentrations of oritavancin
Drug loading [3, 8]: 13.4%
Encapsulation efficiency (EE) [3, 8]: 68.1%
Drug loading [3, 9]: 10.6%
Encapsulation efficiency (EE) [3, 9]: 41.0%

CCCCCCCCCCNCCNC1(C)CC(OC2C(Oc3c4cc5cc3Oc3ccc(cc3Cl)C(O)C(NC(=O)C(CC(C)C)NC)C(=O)NC(CC(N)=O)C(=O)NC5C(=O)NC3C(=O)NC(C(=O)CC(C(=O)O)c5cc(O)cc(O)c5-c5cc3ccc5O)C(O)c3ccc(c(Cl)c3)O4)OC(CO)C(O)C2O)OC(C)C1O (stereo not shown) [RV40]
Drug loading [1, 4]: 3.1%
Encapsulation efficiency (EE) [1, 4]: 15.0%
Drug loading [1, 5]: 15.0%
Encapsulation efficiency (EE) [1, 5]: 100.7%
Drug loading [1, 6]: 1.9%
Encapsulation efficiency (EE) [1, 6]: 7.0%
Drug loading [1, 7]: 0.0%
Encapsulation efficiency (EE) [1, 7]: 0.0%
Drug loading [3, 8]: 6.4%
Encapsulation efficiency (EE) [3, 8]: 45.5%
Drug loading [3, 9]: 6.7%
Encapsulation efficiency (EE) [3, 9]: 33.2%

CCCCCCCCCCNC(=O)CNC1(C)CC(OC2C(Oc3c4cc5cc3Oc3ccc(cc3Cl)C(O)C3NC(=O)C(NC(=O)C5NC(=O)C(CC(N)=O)NC(=O)C(NC(=O)C(CC(C)C)NC)C(O)c5ccc(c(Cl)c5)O4)c4ccc(O)c(c4)-c4c(O)cc(O)cc4C(C(=O)O)NC3=O)OC(CO)C(O)C2O)OC(C)C1O (stereo not shown) [RV94]
Drug loading [1, 4]: 3.5%
Encapsulation efficiency (EE) [1, 4]: 12.9%
Drug loading [1, 5]: 20.9%
Encapsulation efficiency (EE) [1, 5]: 107.2%
Drug loading [1, 6]: 2.8%
Encapsulation efficiency (EE) [1, 6]: 10.4%
Drug loading [1, 7]: 1.3%
Encapsulation efficiency (EE) [1, 7]: 4.2%
Drug loading [3, 10]: 16.7%
Encapsulation efficiency (EE) [3, 10]: 88.4%
Drug loading [3, 11]: 13.6%
Encapsulation efficiency (EE) [3, 11]: 70.1%
Drug loading [3, 12]: 0.9%
Encapsulation efficiency (EE) [3, 12]: 4.0%
Drug loading [3, 8]: 17.5%
Encapsulation efficiency (EE) [3, 8]: 92.7%
Drug loading [3, 9]: 13.2%
Encapsulation efficiency (EE) [3, 9]: 59.8%

CN[C@H](CC(C)C)C(=O)N[C@H]1C(=O)N[C@@H](CC(N)=O)C(=O)N[C@H]2C(=O)N[C@H]3C(=O)N[C@H](C(=O)N[C@H](C(=O)O)c4cc(O)cc(O)c4-c4cc3ccc4O)[C@H](O)c3ccc(c(Cl)c3)Oc3cc2cc(c3O[C@@H]2O[C@H](CO)[C@@H](O)[C@H](O)[C@H]2O[C@H]2C[C@](C)(N)[C@H](O)[C@H](C)O2)Oc2ccc(cc2Cl)[C@H]1O [Vac, vancomycin]
Drug loading [1, 4]: 0.0%
Encapsulation efficiency (EE) [1, 4]: 0.1%
Encapsulation efficiency (EE) ([1]; PNP with PLA-PEG (A) 5 mg + pGlu (D) 5 mg, listed as vancomycin): 0.1%
Drug loading [1, 5]: 0.1%
Encapsulation efficiency (EE) [1, 5]: 0.5%
Encapsulation efficiency (EE) ([1]; PNP with PLA-PEG (A) 5 mg + pGlu(0.6C10) (E) 5 mg, listed as vancomycin): 0.5%
Drug loading [1, 6]: 0.0%
Encapsulation efficiency (EE) [1, 6]: 0.2%
Encapsulation efficiency (EE) ([1]; PNP with PLA-PEG (A) as only polymer, 10 mg polymer, listed as vancomycin): 0.2%
Drug loading [1, 7]: 0.0%
Encapsulation efficiency (EE) [1, 7]: 0.0%
Drug loading [3, 10]: 2.7%
Encapsulation efficiency (EE) [3, 10]: 18.6%
Drug loading [3, 11]: 0.0%
Encapsulation efficiency (EE) [3, 11]: 0.0%
Encapsulation efficiency (EE) ([3]; study 1, PLA-PEG (A) 10 mg + pGlu-PEG (B) 10 mg, listed as vancomycin): 0.0%
Drug loading [3, 12]: 0.0%
Encapsulation efficiency (EE) [3, 12]: 0.0%
Encapsulation efficiency (EE) ([3]; study 1, PLA-PEG (A) 20 mg only, listed as vancomycin): 0.0%
Drug loading [3, 8]: 2.4%
Encapsulation efficiency (EE) [3, 8]: 9.8%
Drug loading [3, 9]: 0.0%
Encapsulation efficiency (EE) [3, 9]: 0.2%

— patent US20250135028A1, “TUNABLE POLYMERIC NANOPARTICLES FOR TARGETED AND SUSTAINED DELIVERY OF GLYCOPEPTIDE ANTIBIOTICS” (Insmed Incorporated, priority 2021, published 2025)
